Assay [1] concerns the target T1, G12V-mutant human KRAS (amino acid residues 1-188) (Homo sapiens, UniProt P01116, G12V).
T1 construct: G12V-mutant human KRAS (amino acid residues 1-188) with FLAG tag was purified from E. coli; made in house; host or cells: E. coli
The assay can be described thus: KRAS Binding Competition Assay (AlphaScreen; biotinylated KRpep-2d analogue), G12V. The conditions noted are these: geometric mean, read-out: KRAS GMean IC50 (uM) MUTATION: G12V. (Bead proximity is the source of the signal in Alpha formats.)

Assay [2] addresses T2, G12D-mutant human KRAS (amino acid residues 1-188) (Homo sapiens, UniProt P01116, G12D).
T2 construct: G12D or G12C-mutant human KRAS (amino acid residues 1-188) with FLAG tag; made in house; host or cells: E. coli
Put plainly: KRAS Binding Disruption Assay (AlphaScreen; biotinylated KRpep-2d analogue or RAF1-RBD), G12D. The conditions noted are these: KRAS G12D; geometric mean; read-out: KRAS GMean IC50 (uM) MUTATION: G12D. The essentials:
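Mutant KRAS (5-20 nM) incubated 1 h at 25° C with test compound and 5-20 nM biotinylated KRpep-2d analogue or RAF1-RBD in 20 mM HEPES pH 7.5, 100 mM NaCl, 5 mM MgCl2, 0.01% Tween-20, 0.01% BSA.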

With `Cc1cccc2c(Nc3ccc4c(N5C[C@H]6CC[C@@H](C5)N6)nc(OC[C@@H]5CCCN5C)nc4c3F)n[nH]c12` [P-0437, 4-((1R,5S)-3,8-diazabicyclo[3.2.1]octan-3-yl)-8-fluoro-N-(7-methyl-1H-indazol-3-yl)-2-(((S)-1-methylpyrrolidin-2-yl)methoxy)quinazolin-7-amine], the IC50 (in general, the concentration that gives 50% inhibition) in assay [1] fell in the range of 100 to 1000 µM; in assay [2], 10 to 100 µM.

On to `CN1CCC[C@H]1COc1nc(N2C[C@H]3CC[C@@H](C2)N3)c2ccc(Nc3n[nH]c4c(F)cccc34)c(F)c2n1` [P-0438, 4-((1R,5S)-3,8-diazabicyclo[3.2.1]octan-3-yl)-8-fluoro-N-(7-fluoro-1H-indazol-3-yl)-2-(((S)-1-methylpyrrolidin-2-yl)methoxy)quinazolin-7-amine], for which the half-inhibitory concentration (IC50) in assay [1] and in assay [2] was 10 to 100 µM throughout.

On to `Oc1cc(-c2ccc3c(N4C[C@H]5CC[C@@H](C4)N5)nc(CCN4CCCC4)nc3c2F)c2ccccc2c1` [P-0439, 4-(4-((1R,5S)-3,8-diazabicyclo[3.2.1]octan-3-yl)-8-fluoro-2-(2-(pyrrolidin-1-yl)ethyl)quinazolin-7-yl)naphthalen-2-ol], for which the IC50 in assay [1] was in the range of 10 to 100 µM; in assay [2], 0.0001 to 10 µM.

With `C[C@H]1CCCN1CCc1nc(N2C[C@H]3CC[C@@H](C2)N3)c2ccc(-c3cc(O)cc4ccccc34)c(F)c2n1` [P-0440, 4-(4-((1R,5S)-3,8-diazabicyclo[3.2.1]octan-3-yl)-8-fluoro-2-(2-((S)-2-methylpyrrolidin-1-yl)ethyl)quinazolin-7-yl)naphthalen-2-ol], the IC50 in assay [1] lay in the range of 10 to 100 µM; in assay [2] it was 0.0001 to 10 µM.

Turning to `Fc1cc2c(N3C[C@H]4CC[C@@H](C3)N4)nc(OCC34CCCN3CCC4)nc2c(F)c1-c1c[nH]c2ccc(Cl)c(F)c12` [P-0441, 4-((1R,5S)-3,8-diazabicyclo[3.2.1]octan-3-yl)-7-(5-chloro-4-fluoro-1H-indol-3-yl)-6,8-difluoro-2-((tetrahydro-1H-pyrrolizin-7a(5H)-yl)methoxy)quinazoline], the IC50 in assay [1] and in assay [2] was 0.0001 to 10 µM throughout.

On to `Cc1cccc2cccc(-c3ccc4c(N5C[C@H]6CC[C@@H](C5)N6C(=O)CC#N)nc(OCC56CCCN5CCC6)nc4c3F)c12` [P-0442, 3-((1R,5S)-3-(8-fluoro-7-(8-methylnaphthalen-1-yl)-2-((tetrahydro-1H-pyrrolizin-7a(5H)-yl)methoxy)quinazolin-4-yl)-3,8-diazabicyclo[3.2.1]octan-8-yl)-3-oxopropanenitrile], for which the IC50 in assay [1] is 0.0001 to 10 µM; in assay [2], 10 to 100 µM.

For `CN1CCC[C@H]1COc1nc(N2C[C@H]3CC[C@@H](C2)N3)c2cnc(N3CC(=O)Nc4cccc(Cl)c43)c(F)c2n1` [P-0444, 4-(4-((1R,5S)-3,8-diazabicyclo[3.2.1]octan-3-yl)-8-fluoro-2-(((S)-1-methylpyrrolidin-2-yl)methoxy)pyrido[4,3-d]pyrimidin-7-yl)-5-chloro-3,4-dihydroquinoxalin-2(1H)-one], the figures for the IC50 in assay [1] and in assay [2] were 100 to 1000 µM and 10 to 100 µM, respectively.

On to `CN(C)Cc1nc(N2C[C@H]3CC[C@@H](C2)N3)c2cc(Cl)c(-c3c(O)cccc3F)c(F)c2n1` [P-0445, 2-(4-((1R,5S)-3,8-diazabicyclo[3.2.1]octan-3-yl)-6-chloro-2-((dimethylamino)methyl)-8-fluoroquinazolin-7-yl)-3-fluorophenol], for which the IC50 in assay [1] and in assay [2] was 10 to 100 µM in each case.

`O=C1c2ccccc2C(=O)N1Cc1nc(N2C[C@H]3CC[C@@H](C2)N3)c2cc(Cl)c(-c3c(O)cccc3F)c(F)c2n1` [P-0446, 2-((4-((1R,5S)-3,8-diazabicyclo[3.2.1]octan-3-yl)-6-chloro-8-fluoro-7-(2-fluoro-6-hydroxyphenyl)quinazolin-2-yl)methyl)isoindoline-1,3-dione]: the IC50 in assay [1] and in assay [2] was 10 to 100 µM throughout.

As for `CN1CCC[C@H]1COc1nc(N2C[C@H]3CC[C@@H](C2)N3C(=O)CC2SC(=O)NC2=O)c2cc(Cl)c(-c3cc(O)cc4ccccc34)c(F)c2n1` (stereo partly drawn) [P-0447, 5-(2-((1R,5S)-3-(6-chloro-8-fluoro-7-(3-hydroxynaphthalen-1-yl)-2-(((S)-1-methylpyrrolidin-2-yl)methoxy)quinazolin-4-yl)-3,8-diazabicyclo[3.2.1]octan-8-yl)-2-oxoethyl)thiazolidine-2,4-dione], the IC50 in assay [1] and in assay [2] was 0.0001 to 10 µM each time.

Regarding `Fc1cc2c(N3C[C@H]4CC[C@@H](C3)N4)nc(OCC34CCCN3CCC4)nc2c(F)c1-c1c[nH]c2cccc(F)c12` [P-0448, 4-((1R,5S)-3,8-diazabicyclo[3.2.1]octan-3-yl)-6,8-difluoro-7-(4-fluoro-1H-indol-3-yl)-2-((tetrahydro-1H-pyrrolizin-7a(5H)-yl)methoxy)quinazoline], the IC50 in assay [1] lay within 10 to 100 µM; in assay [2], 0.0001 to 10 µM.

Take `CC(C(=O)N1[C@@H]2CC[C@H]1CN(c1nc(OCC34CCCN3CCC4)nc3c(F)c(-c4cc(O)cc5ccccc45)ccc13)C2)S(N)(=O)=O` (stereo partly drawn) [P-0449, 1-((1R,5S)-3-(8-fluoro-7-(3-hydroxynaphthalen-1-yl)-2-((tetrahydro-1H-pyrrolizin-7a(5H)-yl)methoxy)quinazolin-4-yl)-3,8-diazabicyclo[3.2.1]octan-8-yl)-1-oxopropane-2-sulfonamide]: the IC50 in assay [1] and in assay [2] was 0.0001 to 10 µM in each case.

Take `COC(=N)CC(=O)N1[C@@H]2CC[C@H]1CN(c1nc(OC[C@@H]3CCCN3C)nc3c(F)c(-c4cc(O)cc5ccccc45)c(Cl)cc13)C2` [P-0450, methyl 3-((1R,5S)-3-(6-chloro-8-fluoro-7-(3-hydroxynaphthalen-1-yl)-2-(((S)-1-methylpyrrolidin-2-yl)methoxy)quinazolin-4-yl)-3,8-diazabicyclo[3.2.1]octan-8-yl)-3-oxopropanimidate]: the IC50 in assay [1] and in assay [2] was 10 to 100 µM in each case.

Regarding `CN1CCC[C@H]1COc1nc(N2C[C@H]3CC[C@@H](C2)N3C(=O)CC(N)=O)c2cc(Cl)c(-c3cc(O)cc4ccccc34)c(F)c2n1` [P-0451, 3-((1R,5S)-3-(6-chloro-8-fluoro-7-(3-hydroxynaphthalen-1-yl)-2-(((S)-1-methylpyrrolidin-2-yl)methoxy)quinazolin-4-yl)-3,8-diazabicyclo[3.2.1]octan-8-yl)-3-oxopropanamide], the IC50 in assay [1] lay in the range of 10 to 100 µM; in assay [2], 0.0001 to 10 µM.

Consider `NS(=O)(=O)C1(C(=O)N2[C@@H]3CC[C@H]2CN(c2nc(OCC45CCCN4CCC5)nc4c(F)c(-c5cc(O)cc6ccccc56)ccc24)C3)CC1` [P-0452, 1-((1R,5S)-3-(8-fluoro-7-(3-hydroxynaphthalen-1-yl)-2-((tetrahydro-1H-pyrrolizin-7a(5H)-yl)methoxy)quinazolin-4-yl)-3,8-diazabicyclo[3.2.1]octane-8-carbonyl)cyclopropane-1-sulfonamide], for which the IC50 in assay [1] and in assay [2] was 0.0001 to 10 µM throughout.

Turning to `Cc1cccc2c1N(c1ncc3c(N4C[C@H]5CC[C@@H](C4)N5)nc(OCC45CCCN4CCC5)nc3c1F)CC(O)C2` (stereo partly drawn) [P-0453, 1-(4-((1R,5S)-3,8-diazabicyclo[3.2.1]octan-3-yl)-8-fluoro-2-((tetrahydro-1H-pyrrolizin-7a(5H)-yl)methoxy)pyrido[4,3-d]pyrimidin-7-yl)-8-methyl-1,2,3,4-tetrahydroquinolin-3-ol], the IC50 in assay [1] is 100 to 1000 µM; in assay [2] it was 0.0001 to 10 µM.

As to `Cc1cccc2c1N(c1ccc3c(N4C[C@H]5CC[C@@H](C4)N5)nc(OCC45CCCN4CCC5)nc3c1F)CC(O)C2` (stereo partly drawn) [P-0454, 1-(4-((1R,5S)-3,8-diazabicyclo[3.2.1]octan-3-yl)-8-fluoro-2-((tetrahydro-1H-pyrrolizin-7a(5H)-yl)methoxy)quinazolin-7-yl)-8-methyl-1,2,3,4-tetrahydroquinolin-3-ol], the IC50 in assay [1] lay in the range of 100 to 1000 µM; in assay [2], 0.0001 to 10 µM.

For the compound `CCCc1nc(N2C[C@H]3CC[C@@H](C2)N3)c2ccc(-c3cc(O)cc4ccccc34)c(F)c2n1` [P-0455, 4-(4-((1R,5S)-3,8-diazabicyclo[3.2.1]octan-3-yl)-8-fluoro-2-propylquinazolin-7-yl)naphthalen-2-ol], the IC50 lay within 10 to 100 µM in assay [1] and 0.0001 to 10 µM in assay [2].

In the case of `OCc1nc(N2C[C@H]3CC[C@@H](C2)N3)c2cc(Cl)c(-c3c(O)cccc3F)c(F)c2n1` [P-0456, 2-(4-((1R,5S)-3,8-diazabicyclo[3.2.1]octan-3-yl)-6-chloro-8-fluoro-2-(hydroxymethyl)quinazolin-7-yl)-3-fluorophenol], the IC50 in assay [1] and in assay [2] was 10 to 100 µM in each case.

In the case of `Cc1cccc2c(Nc3c(F)cc4c(N5C[C@H]6CC[C@@H](C5)N6)nc(OC[C@@H]5CCCN5C)nc4c3F)n[nH]c12` [P-0457, 4-((1R,5S)-3,8-diazabicyclo[3.2.1]octan-3-yl)-6,8-difluoro-N-(7-methyl-1H-indazol-3-yl)-2-(((S)-1-methylpyrrolidin-2-yl)methoxy)quinazolin-7-amine], the IC50 in assay [1] and in assay [2] was 10 to 100 µM in each case.

`CN1CCC[C@H]1COc1nc(N2C[C@H]3CC[C@@H](C2)N3)c2ccc(-n3nc(O)c4cccc(F)c43)c(F)c2n1` [P-0458, 1-(4-((1R,5S)-3,8-diazabicyclo[3.2.1]octan-3-yl)-8-fluoro-2-(((S)-1-methylpyrrolidin-2-yl)methoxy)quinazolin-7-yl)-7-fluoro-1H-indazol-3-ol]: the IC50 in assay [1] fell in the range of 100 to 1000 µM; in assay [2], 10 to 100 µM.

Consider `OCC(O)c1nc(N2C[C@H]3CC[C@@H](C2)N3)c2ccc(-c3cc(O)cc4ccccc34)c(F)c2n1` (stereo partly drawn) [P-0459, 1-(4-((1R,5S)-3,8-diazabicyclo[3.2.1]octan-3-yl)-8-fluoro-7-(3-hydroxynaphthalen-1-yl)quinazolin-2-yl)ethane-1,2-diol], for which the IC50 in assay [1] and in assay [2] was 0.0001 to 10 µM each time.

For the origin of these results see US20230081426A1, “COMPOUNDS AND METHODS FOR KRAS MODULATION AND INDICATIONS THEREFOR” (Plexxikon Inc., priority 2020, published 2023).
